From US12643861B2, “Crystalline form of fluvatinib or fluvatinib methanesulfonate and preparation method therefor” (CHONGQING PHARMACEUTICAL RESEARCH INSTITUTE CO., LTD, priority 2020, dated 2026)
Counter-ions that a name gives are not always drawn. Like-named read-outs stand apart in the source and are kept apart here. Blank lines part the entries; values can stand above or below the compound they belong to.

Assays:
Assay type in all cases: physicochemical
[1] = Crystal transformation of fluvatinib mesylate crystalline forms stirred in ethanol, XRPD
Protocol: The crystalline form of the fluvatinib methanesulfonate was investigated on its stability in ethanol, to see whether there is crystal transformation.
About 0.15 g of the crystalline forms II (Form II), III (Form III), VI (Form VI) and VII (Form VII) of the fluvatinib mesylate were weighed and respectively added to reaction flasks containing ethanol, stirred magnetically for 2 days at room temperature, and filtered. The filter cakes were dried at 40-50° C. with spinning under reduced pressure. The obtained dried samples were detected by XRPD.

[2] = Hydrothermal stability of the crystalline forms of fluvatinib mesylate, XRPD; settings: Table 11
Protocol: The crystalline forms I, III, IV, V, VI, and VII of fluvatinib mesylate of the present disclosure were placed in harsh environments to investigate their stability. They were placed under high temperature and high humidity conditions: 25° C. 92.5% R.H for 7 days, 40° C. 75% R.H for 14 days, and 60° C. for 14 days, and then detected by XRPD.

[3] = Crystalline form stability on tableting and storage of tablets, XRPD; settings: for crystal transformation during the process of preparing tablets: direct compression tablets, 30% crystalline form; for crystal transformation after the tablets being placed for 6 months: 40° C., 75% RH
Protocol: The formula amounts of the crystalline form of fluvatinib mesylate, anhydrous lactose and direct compression starch were mixed, and then mixed with magnesium stearate. The mixture was prepared into tablets by direct compression method, with each table weighed 200 mg.
The crystalline forms before and after being prepared into tablets and after the tablets being placed in 40° C., 75% RH environment for 6 months were detected by XRPD. The results are shown in FIGS. 19 and 20, wherein A, B, and C represent XRPD patterns of the crystalline form before and after being prepared into tablets and after the tablets being placed for 6 months.

[4] = Stability under high temperature and high humidity for half of a month or 3 months
[5] = Dynamic vapor sorption (DVS) hygroscopicity
Protocol: At the same time, the crystalline form I of fluvatinib mesylate was tested for dynamic hygroscopicity by DVS to detect water content. […] This indicates again that the crystalline form I of fluvatinib mesylate has good stability.
The crystalline form III of fluvatinib mesylate was tested for hygroscopicity under humidity conditions of 25° C., 0-90% RH, using a dynamic moisture tester a dynamic vapor sorption (DVS) analyzer.

[6] = Stability of crystalline form I of fluvatinib mesylate stirred in acetone, ethanol, ethyl acetate, XRPD; settings: acetone or ethyl acetate, stirred 10 h at room temperature
Protocol: The crystalline form I of fluvatinib mesylate was stored in acetone, ethanol and ethyl acetate to investigate whether there was a crystal transformation.
3 parts of about 50 mg the crystalline form I of fluvatinib mesylate were weighed and respectively added to reaction flasks containing an appropriate amount of acetone, ethanol, or ethyl acetate solvent. The suspension samples were placed on magnetic stirrers, stirred for 10 h at room temperature, and filtered. The filter cake was dried at 40-50° C. with spinning under reduced pressure. The obtained dry samples were detected by XRPD.

[7] = Stability of crystalline form III of fluvatinib mesylate in air (oxygen gas), oxidation; settings: exposed to air
Source text: To investigate the stability of the crystalline form III of fluvatinib mesylate (Form III), Form III was exposed to air and contacted with oxygen.

[8] = High temperature suspension experiment (50° C.) in organic solvents, XRPD; settings: 25 mg, 24 hours
Protocol: The crystalline form III of fluvatinib mesylate was subjected to high temperature suspension experiments (50° C.), to investigate whether the crystalline form III of fluvatinib mesylate undergoes crystal transformation in various type of common organic solvents, and whether it is stable. The crystalline form III of fluvatinib mesylate was suspended in 12 types of organic solvents (in 1 mL of solvent) and water as set forth in Table 10 at a temperature of 50° C. and an amount of about 25 mg for 24 hours. The solids after being suspended in the organic solvents were detected by XRPD.

[9] = Solubility compared with lenvatinib; settings: method or value not given
[10] = Crystal transformation test of crystalline form I of fluvatinib stirred in solvents, XRPD; settings: 40° C.
Protocol: The crystalline form I of fluvatinib was placed in an organic solvent and a water-containing organic solvent, and stirred at 40° C. for 2 days to investigate whether there was a crystal transformation.
A number parts of about 30 mg of the crystalline form I of fluvatinib (Form I) were respectively weighed and added to different glass bottles, and added with an appropriate amount of a single organic solvent or a mixture containing water (see Table 8) to form suspensions. The above-mentioned suspension samples were placed on magnetic stirrers (40° C.) to perform a stirring test. After being stirring at 40° C. for 2 days, the suspension samples were filtered. The filter cake samples were then dried overnight in a vacuum dry box (40° C.), and the dried samples were detected by XRPD (see Table 8 and FIG. 14).

[11] = ethanol, stirred 2 days at room temperature
[12] = stirred in ethanol for 2-4 days
[13] = listed as crystalline forms of fluvatinib

SMILES: COc1cc2nccc(Oc3ccc(NC(=O)NC4CC4)c(Cl)c3F)c2cc1C(N)=O [crystalline form VI of fluvatinib mesylate] [fluvatinib methanesulfonate]
- crystal transformation in ethanol [1, 11]: converted to Form III
- crystal transformation in ethanol [1, 12]: transformed into the crystalline form III
- crystal transformation under high temperature and high humidity conditions [2]: undergone crystal transformation

SMILES: COc1cc2nccc(Oc3ccc(NC(=O)NC4CC4)c(Cl)c3F)c2cc1C(N)=O [crystalline form I of fluvatinib mesylate] [fluvatinib methanesulfonate]
- crystal transformation during the process of preparing tablets [3]: neither the crystalline form I of fluvatinib mesylate nor the crystalline form III of fluvatinib mesylate undergoes crystal transformation
- crystal transformation after the tablets being placed for 6 months [3]: no crystal transformation occurred
- change of content of related impurities / related substances [4]: no apparent change
- crystal transformation [4]: did not show crystal transformation
- hygroscopic weight gain ([5]; 25° C./80% RH): 1.3%
- crystal transformation after DVS measurements ([5]; XRPD before and after DVS): did not undergo crystal transformation
- crystal transformation in single solvent [6]: maintained its form
- crystal transformation under high temperature and high humidity conditions [2]: did not undergo crystal transformation

SMILES: COc1cc2nccc(Oc3ccc(NC(=O)NC4CC4)c(Cl)c3F)c2cc1C(N)=O [crystalline form III of fluvatinib mesylate] [fluvatinib methanesulfonate]
- crystal transformation during the process of preparing tablets [3]: neither the crystalline form I of fluvatinib mesylate nor the crystalline form III of fluvatinib mesylate undergoes crystal transformation
- crystal transformation after the tablets being placed for 6 months [3]: no crystal transformation occurred
- change of content of related impurities / related substances [4]: no apparent change
- crystal transformation [4]: did not show crystal transformation
- Stability data in oxygen gas, oxidation ([7]; 20-30° C., 0 hour): 93.66%
- Stability data in oxygen gas, oxidation ([7]; 20-30° C., 24 hours): 94.10%
- Stability data in oxygen gas, oxidation ([7]; 60° C., 0 hour): 93.61%
- Stability data in oxygen gas, oxidation ([7]; 60° C., 24 hours): 94.00%
- XRD results ([8]; 1.4-dioxane 1 mL): Form III
- XRD results ([8]; acetone 1 mL): Form III
- XRD results ([8]; acetonitrile 1 mL): Form III
- XRD results ([8]; cyclohexane 1 mL): Form III
- XRD results ([8]; dichloromethane 1 mL): Form III
- XRD results ([8]; ethanol 1 mL): Form III
- XRD results ([8]; ethyl acetate 1 mL): Form III
- XRD results ([8]; isopropanol 1 mL): Form III
- XRD results ([8]; n-heptane 1 mL): Form III
- XRD results ([8]; n-hexane 1 mL): Form III
- XRD results ([8]; tetrahydrofuran 1 mL): Form III
- hygroscopic weight ([5]; 25° C., 0-90% RH): 0.44%
- crystal transformation in ethanol [1, 11]: did not undergo crystal transformation
- crystal transformation in ethanol [1, 12]: did not undergo crystal transformation
- crystal transformation under high temperature and high humidity conditions [2]: did not undergo crystal transformation
- solubility [9]: better than that of lenvatinib

SMILES: COc1cc2nccc(Oc3ccc(NC(=O)NC4CC4)c(Cl)c3F)c2cc1C(N)=O [crystalline form VII of fluvatinib mesylate] [fluvatinib methanesulfonate]
- crystal transformation in ethanol [1, 11]: converted to Form III
- crystal transformation in ethanol [1, 12]: transformed into the crystalline form III
- crystal transformation under high temperature and high humidity conditions [2]: undergone crystal transformation

Further lines, with some results ahead:

- crystalline form after stirring for 2 days ([10]; THF 0.4 mL): Form I
- crystalline form after stirring for 2 days ([10]; THF-water (1:1) 0.4 mL): Form I
- crystalline form after stirring for 2 days ([10]; acetone 0.4 mL): Form I
- crystalline form after stirring for 2 days ([10]; acetone-water (1:2) 0.4 mL): Form I
- crystalline form after stirring for 2 days ([10]; ethanol 0.4 mL): Form I
- crystalline form after stirring for 2 days ([10]; ethanol-water (3:1) 0.4 mL): Form I
- crystalline form after stirring for 2 days ([10]; ethyl acetate 0.4 mL): Form I
- crystalline form after stirring for 2 days ([10]; isopropanol 0.4 mL): Form I
- crystalline form after stirring for 2 days ([10]; isopropanol-water (1:1) 0.4 mL): Form I
- crystalline form after stirring for 2 days ([10]; methanol 0.4 mL): Form I
- crystalline form after stirring for 2 days ([10]; methanol-water (3:1) 0.4 mL): Form I
- change of content of related impurities / related substances [4, 13]: no change
- crystal transformation [4, 13]: no occurrence of crystal transformation
SMILES: COc1cc2nccc(Oc3ccc(NC(=O)NC4CC4)c(Cl)c3F)c2cc1C(N)=O [crystalline form I of fluvatinib, 4-(2-fluoro-3-chloro-(cyclopropylaminocarbonyl)aminophenoxy)-7-methoxy-6-quinolinecarboxamide]

- crystal transformation under high temperature and high humidity conditions [2]: undergone crystal transformation
SMILES: COc1cc2nccc(Oc3ccc(NC(=O)NC4CC4)c(Cl)c3F)c2cc1C(N)=O [crystalline form V of fluvatinib mesylate] [fluvatinib methanesulfonate]

- crystal transformation in ethanol [1, 11]: converted to Form III
SMILES: COc1cc2nccc(Oc3ccc(NC(=O)NC4CC4)c(Cl)c3F)c2cc1C(N)=O [crystalline form II of fluvatinib mesylate] [fluvatinib methanesulfonate]
- crystal transformation in ethanol [1, 12]: transformed into the crystalline form III
